# In ChEMBL document CHEMBL1150001, “A rationale for the design and synthesis of m1 selective muscarinic agonists” (Bioorg Med Chem Lett, 1992):
# Numbering of substitutions follows the chain as printed. Active and inactive are the calls of the source. No cut-off for these calls is given here.
# Key:
# [1] = biological target: Muscarinic acetylcholine receptor; assay: Compound was evaluated for inhibition of [3H]cis-methyldioxolane binding to label agonist sites (RCMD) in rat neocortex
# [2] = biological target: T1, Muscarinic acetylcholine receptor M1 (Homo sapiens, UniProt P11229); assay type: functional, cell-based, CHO
# T1 sequence (P11229 whole entry): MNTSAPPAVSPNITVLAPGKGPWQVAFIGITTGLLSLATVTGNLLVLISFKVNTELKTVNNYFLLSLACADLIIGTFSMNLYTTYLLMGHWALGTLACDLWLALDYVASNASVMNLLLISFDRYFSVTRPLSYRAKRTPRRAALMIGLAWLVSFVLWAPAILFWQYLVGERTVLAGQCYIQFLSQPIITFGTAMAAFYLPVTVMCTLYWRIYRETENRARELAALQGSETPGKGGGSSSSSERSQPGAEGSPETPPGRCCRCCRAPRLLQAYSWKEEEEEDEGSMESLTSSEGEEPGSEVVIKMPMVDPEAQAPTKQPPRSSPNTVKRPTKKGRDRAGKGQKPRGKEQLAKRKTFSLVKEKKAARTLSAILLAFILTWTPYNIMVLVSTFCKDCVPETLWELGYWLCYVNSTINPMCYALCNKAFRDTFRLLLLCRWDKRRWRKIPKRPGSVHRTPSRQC
# Description: Inhibitory activity against human Muscarinic acetylcholine receptor M1 using [3H]quinuclidinyl benzilate to label antagonist site (RQNB) in CHO cells
# [3] = biological target: T2, Muscarinic receptor M1 and M2 (Rattus norvegicus, UniProt P08482+P10980); assay: Compound was evaluated for its inhibition of [3H]quinuclidinyl benzilate binding to label antagonist site (RQNB) in rat neocortex
# T2 sequence (P08482 whole entry): T1 sequence (P11229 whole entry) with A5V, T254S, P309S, R320K, A337G, I413V
# T2 sequence (P10980 whole entry): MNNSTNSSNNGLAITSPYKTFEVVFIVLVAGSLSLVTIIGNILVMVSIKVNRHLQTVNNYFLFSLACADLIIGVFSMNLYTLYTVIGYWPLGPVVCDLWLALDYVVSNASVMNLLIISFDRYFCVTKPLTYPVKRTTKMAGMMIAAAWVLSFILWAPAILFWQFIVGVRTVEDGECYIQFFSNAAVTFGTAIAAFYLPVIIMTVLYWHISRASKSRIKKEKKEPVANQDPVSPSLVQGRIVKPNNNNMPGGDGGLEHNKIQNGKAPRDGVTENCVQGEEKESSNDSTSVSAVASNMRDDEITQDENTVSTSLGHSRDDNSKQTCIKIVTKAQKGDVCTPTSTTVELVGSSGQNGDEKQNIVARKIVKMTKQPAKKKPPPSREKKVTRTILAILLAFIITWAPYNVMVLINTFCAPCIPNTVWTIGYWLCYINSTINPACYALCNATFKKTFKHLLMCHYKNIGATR
# [4] = biological target: T1, Muscarinic acetylcholine receptor M1; assay type: functional, cell-based, CHO; remark: listed apart in the source
# Description: Effective concentration for HMPA (human muscarinic inositol phosphate accumulation) activity measured in CHO cells expressing Muscarinic acetylcholine receptor M1
# [5] = biological target: T3, Muscarinic acetylcholine receptor M1 (Homo sapiens) (UniProt P11229); conditions: CHO; at 100 µM
# T3 sequence (whole entry): T1 sequence (P11229 whole entry)
# Description: Evaluated for its HMPA (human muscarinic inositol phosphate accumulation) activity measured in CHO cells expressing Muscarinic acetylcholine receptor M1 compound run at 100 uM
# [6] = biological target: T4, Muscarinic acetylcholine receptor M2 (Homo sapiens, UniProt P08172); assay: Inhibitory activity against human Muscarinic acetylcholine receptor M2 using [3H]quinuclidinyl benzilate to label antagonist site (RQNB) in CHO cells; assay type: cell-based
# T4 sequence (P08172 whole entry): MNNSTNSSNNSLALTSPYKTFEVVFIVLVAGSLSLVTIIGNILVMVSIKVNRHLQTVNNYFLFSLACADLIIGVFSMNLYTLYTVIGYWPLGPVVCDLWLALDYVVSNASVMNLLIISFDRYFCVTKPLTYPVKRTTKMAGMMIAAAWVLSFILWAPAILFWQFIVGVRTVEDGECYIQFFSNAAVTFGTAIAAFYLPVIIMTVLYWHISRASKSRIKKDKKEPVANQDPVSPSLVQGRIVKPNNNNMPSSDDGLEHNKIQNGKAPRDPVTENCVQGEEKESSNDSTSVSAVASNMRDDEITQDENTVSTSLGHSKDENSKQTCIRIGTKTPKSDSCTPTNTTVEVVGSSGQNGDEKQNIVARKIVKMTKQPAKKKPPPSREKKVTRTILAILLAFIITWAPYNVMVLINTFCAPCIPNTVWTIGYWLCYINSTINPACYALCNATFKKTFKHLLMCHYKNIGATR
# [7] = biological target: T5, Muscarinic acetylcholine receptor M3 (Homo sapiens, UniProt P20309); assay: Evaluated for its MIPA (muscarinic-stimulated inositol phosphate accumulation) activity measured in SK-N-SH neuroblastoma cells expressing human muscarinic m3 receptor, compound run at 100 uM;100 uM of carbachol was used; assay type: functional, cell-based
# Target sequence in this assay (P20309 whole entry, looked up): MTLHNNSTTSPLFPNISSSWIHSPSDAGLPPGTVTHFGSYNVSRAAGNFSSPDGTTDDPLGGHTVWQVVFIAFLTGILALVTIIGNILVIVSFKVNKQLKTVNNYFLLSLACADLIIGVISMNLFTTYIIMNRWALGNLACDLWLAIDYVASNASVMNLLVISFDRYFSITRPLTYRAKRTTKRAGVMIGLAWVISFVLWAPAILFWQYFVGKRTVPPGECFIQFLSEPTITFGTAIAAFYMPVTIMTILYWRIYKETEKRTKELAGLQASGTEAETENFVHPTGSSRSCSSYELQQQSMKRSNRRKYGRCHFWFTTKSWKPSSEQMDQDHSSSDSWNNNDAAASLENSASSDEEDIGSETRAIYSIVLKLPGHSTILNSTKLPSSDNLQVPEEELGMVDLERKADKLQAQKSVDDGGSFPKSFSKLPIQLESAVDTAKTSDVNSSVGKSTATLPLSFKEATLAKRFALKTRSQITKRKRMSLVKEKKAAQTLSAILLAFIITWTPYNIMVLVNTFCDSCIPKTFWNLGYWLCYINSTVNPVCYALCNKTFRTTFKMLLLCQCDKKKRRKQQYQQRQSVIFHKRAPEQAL
# [8] = biological target: T5, Muscarinic acetylcholine receptor M3; assay: Evaluated for its MIPA (muscarinic-stimulated inositol phosphate accumulation) activity measured in SK-N-SH neuroblastoma cells expressing human m3 receptor, compound run at 100 uM;100 uM of carbachol was used; assay type: functional, cell-based
# Target sequence in this assay (P20309 whole entry, looked up): as above
# [9] = biological target: T5, Muscarinic acetylcholine receptor M3; assay type: functional, cell-based, SK-N-SH
# Target sequence in this assay (P20309 whole entry): as the sequence (P20309 whole entry, looked up) above
# Description: Effective concentration for MIPA (muscarinic-stimulated inositol phosphate accumulation) activity in SK-N-SH neuroblastoma cells expressing human muscarinic M3 receptor
# [10] = biological target: T4, Muscarinic acetylcholine receptor M2; assay: Compound was evaluated for inhibitory activity for Muscarinic acetylcholine receptor M2 using [3H]quinuclidinyl benzilate to label antagonist site (RQNB) in CHO cells; assay type: cell-based
# [11] = biological target: T4, Muscarinic acetylcholine receptor M2; assay: Compound was evaluated for inhibitory activity against human Muscarinic acetylcholine receptor M2 using [3H]quinuclidinyl benzilate to label antagonist site (RQNB) in CHO cells; NA: Not active; assay type: cell-based
# [12] = biological target: T1, Muscarinic acetylcholine receptor M1; assay: Compound was evaluated for its inhibitory activity against human Muscarinic acetylcholine receptor M1 using [3H]quinuclidinyl benzilate to label antagonist site (RQNB) in CHO cells; NA=Not active; assay type: cell-based
# [13] = biological target: Muscarinic acetylcholine receptors; M1 & M2 (Homo sapiens) (UniProt P11229+P08172); assay: Selectivity ratio for m1 over m2 muscarinic receptors was determined; NA=Not active; assay type: protein assay
# [14] = biological target: T1, Muscarinic acetylcholine receptor M1; assay: Compound was evaluated for its inhibitory activity against human Muscarinic acetylcholine receptor M1 using [3H]quinuclidinyl benzilate to label antagonist site (RQNB) in CHO cells; Not active; assay type: cell-based
# [15] = biological target: T4, Muscarinic acetylcholine receptor M2; assay: Compound was evaluated for inhibitory activity against human Muscarinic acetylcholine receptor M2 using [3H]quinuclidinyl benzilate to label antagonist site (RQNB) in CHO cells; Not active; assay type: cell-based
Compound,IC50 [1],IC50 [2],IC50 [3],EC50 [4],CCh [5],IC50 [6],CCh [7],CCh [8],EC50 [9],IC50 [10],IC50 [11],IC50 [12],Ratio [13],IC50 [14],IC50 [15]
CC#CCC#CCO/N=C1\CN2CCC1C2 (stereo not drawn),0.039 µM,5.68 µM,2.914 µM,5.05 µM,81%,5.08 µM,2%,,,,,,,,
C[N+](C)(C)CC#CCOC(=O)Nc1cccc(Cl)c1.[Cl-],0.025 µM,4 µM,5.304 µM,3.5 µM,57%,12.9 µM,,3%,,,,,,,
C#CCCO/N=C1\CN2CCC1C2 (stereo not drawn),0.083 µM,14.5 µM,9.806 µM,,,15.6 µM,,,,,,,,,
CCCCC#CCO/N=C1\CN2CCC1C2 (stereo not drawn),0.044 µM,7.89 µM,6.045 µM,,,9.65 µM,,,,,,,,,
C#CCC#CCC#CCO/N=C1\CN2CCC1C2 (stereo not drawn),,2.03 µM,0.958 µM,5.1 µM,50%,2.18 µM,0%,,,,,,,,
CC(C)O/N=C1\CN2CCC1C2 (stereo not drawn),0.046 µM,2.61 µM,2.03 µM,,,3.15 µM,,,,,,,,,
C#CCC#CCO/N=C1\CN2CCC1C2 (stereo not drawn),,10 µM,8.834 µM,4.7 µM,79%,2.84 µM,14%,,16.4 µM,,,,,,
CCCC#CCO/N=C1\CN2CCC1C2 (stereo not drawn),0.048 µM,9.64 µM,8.689 µM,,,,,,,20.6 µM,,,,,
CO/N=C1\CN2CCC1C2 (stereo not drawn),,85 µM,24.558 µM,,,7.89 µM,53%,,14.6 µM,,,,,,
C#CCCCO/N=C1\CN2CCC1C2 (stereo not drawn),0.111 µM,,3.655 µM,,,,,,,,Not Active,Not Active,inactive,,
CCO/N=C1\CN2CCC1C2 (stereo not drawn),0.0125 µM,,3.112 µM,,,,19%,,8.9 µM,,,,,,
Nc1noc(C2CN3CCC2C3)n1 (stereo not drawn) [OXADIAZOLE],0.0003 µM,0.4 µM,0.088 µM,100 µM,293%,0.02 µM,0.269%,,104 µM,,,,,,
C#CC(C)O/N=C1\CN2CCC1C2 (stereo not drawn),0.035 µM,3.69 µM,3.984 µM,,,5.28 µM,,,,,,,,,
O/N=C1\CN2CCC1C2 (stereo not drawn),> 0.1 µM,,> 1 µM,,,,,,,,,,,Not Active,Not Active
CC#CCO/N=C1\CN2CCC1C2 (stereo not drawn),0.004 µM,5.81 µM,4.214 µM,1.9 µM,63%,1.7 µM,,49%,8.8 µM,,,,,,
C#CCO/N=C1\CN2CCC1C2 (stereo not drawn),,9.51 µM,4.359 µM,0.89 µM,104%,1.04 µM,51%,,8.4 µM,,,,,,
CCCO/N=C1\CN2CCC1C2 (stereo not drawn),0.12 µM,3.68 µM,0.032 µM,27 µM,44%,3.98 µM,3%,,,,,,,,
C#C/C=C/CO/N=C1\CN2CCC1C2 (stereo not drawn),,12.6 µM,13.85 µM,,,30.2 µM,,,,,,,,,
C(#Cc1ccccc1)CO/N=C1\CN2CCC1C2 (stereo not drawn),,5.42 µM,5.012 µM,3.3 µM,76%,25.8 µM,11%,,,,,,,,
C=CCC#CCO/N=C1\CN2CCC1C2 (stereo not drawn),0.032 µM,9.44 µM,7.313 µM,,,15.9 µM,,,,,,,,,
CCC#CCO/N=C1\CN2CCC1C2 (stereo not drawn),0.0036 µM,4.9 µM,5.976 µM,5.9 µM,72%,8.6 µM,56%,,9.6 µM,,,,,,
CC(C)(C)O/N=C1\CN2CCC1C2 (stereo not drawn),0.091 µM,3.84 µM,3.54 µM,,,4.46 µM,,,,,,,,,
COCC#CCO/N=C1\CN2CCC1C2 (stereo not drawn),0.055 µM,42.4 µM,35.434 µM,,,59.3 µM,,,,,,,,,
C1CC(O/N=C2\CN3CCC2C3)C1 (stereo not drawn),0.088 µM,1.11 µM,1.156 µM,,,1.63 µM,,,,,,,,,
